Tests used:
[1] = test system: adipocytes of male SD rat; experiment: Acceleration of oxidation of neutral fat in adipocytes (glycerol released into the medium); assay type: cell-based; settings: added in 10 μmol unit, control = 100%, FIG. 1
Protocol: Epididymal adipose tissues obtained from male SD rat were cut to small pieces, and 0.1% of collagenase (in DMEM without phenol red) was added then cultured for 2 hours at 37° C., and then filtered to obtain adipocyte.
A control was cultured in a medium not containing the composition of the present invention (experimental material). In the experimental samples, genistein and/or L-carnitine was added in 10 μmol unit. Results are calculated relatively converting the control to be 100%. Degrees of oxidation of fats are determined by measuring the concentration of glycerol separated into the medium from the adipocytes.
Experiments were performed by taking cell cultures prepared by adding colorless DMEM (Dulbeco's modified eagles medium) containing 0.5% bovine serum albumin (BAS) without fatty acid to the adipocytes. The amount of glycerol was measured with color reaction method using GPO-trinder kit purchased from Sigma (St. Louis, Mo., U.S.A) and absorption in 540 nm was measured with ELISA reader.

[2] = test system: obesity induced by high fat diet; experiment: Weight of epididymal adipose tissue of rats after 8 weeks of high fat diet; assay type: in vivo, Sprague-Dawley white male rat; settings: for Weight of epididymal adipose: after 8 weeks, high fat diet + 0.2% of each substance in diet, n = 12; for weight of epididymal adipose compared with control group with high fat diet: words, 0.2% in high fat diet, 8 weeks
Source text: In order to verify the effects of the present composition to the metabolism of lipid in the fat animals induced by dieting high fat diet, Sprague-Dawley white male rat model was selected. In order to verify the effects of genistein, diadzein and glycitein to the obesity induced from high fat diet, rats of 6 weeks old were adapted for a week and assigned 12 rats for each experimental group. Experimental groups are as follows: (1) normal fat diet; (2) high fat diet; (3) high fat diet+genistein 0.2%; (4) high fat diet+L-carnitine 0.2%; (5) high fat diet+genistein 0.2%+L-carnitine 0.2%; (6) high fat diet+diadzein 0.2%; (7) high fat diet+diadzein 0.2%+L-carnitine 0.2%; (8) high fat diet+glycitein 0.2%; and (9) high fat diet+glycitein 0.2%+L-carnitine 0.2%, and the rats were dieted for 8 weeks. Basic experimental diet was purified AIN-93G diet, and high fat diet was prepared to have fat occupy 36% of the total energy (18% of the total diet), normal fat diet was prepared to have fat occupy 17% of the total energy (7% of the total diet).
After 8 weeks of dieting with the groups of normal fat diet, high fat diet, high fat diet+genistein (0.2%), high fat diet+L-carnitine (0.2%), high fat diet+genistein (0.2%)+L-carnitine (0.2%), high fat diet+diadzein (0.2%), high fat diet+diadzein (0.2%)+L-carnitine (0.2%), high fat diet+glycitein (0.2%) and high fat diet+glycitein (0.2%)+L-carnitine (0.2%), the rats were sacrificed to obtain epididymal adipose tissues. The above obtained epididymal adipose tissues were washed with saline and moistures were removed on a filter bed, then weights were measured.

[3] = test system: obesity induced by high fat diet; experiment: Body weight and food consumption of rats on high fat diet, 8 weeks of dieting; assay type: in vivo, Sprague-Dawley white male rat; settings: for Body weight after dieting: after 8 weeks, high fat diet + 0.2% of each substance in diet, n = 12; for increase of body weight compared with control group with high fat diet: words, 0.2% in high fat diet, 8 weeks
Source text: In order to verify the effects of the present composition to the metabolism of lipid in the fat animals induced by dieting high fat diet, Sprague-Dawley white male rat model was selected. In order to verify the effects of genistein, diadzein and glycitein to the obesity induced from high fat diet, rats of 6 weeks old were adapted for a week and assigned 12 rats for each experimental group. Experimental groups are as follows: (1) normal fat diet; (2) high fat diet; (3) high fat diet+genistein 0.2%; (4) high fat diet+L-carnitine 0.2%; (5) high fat diet+genistein 0.2%+L-carnitine 0.2%; (6) high fat diet+diadzein 0.2%; (7) high fat diet+diadzein 0.2%+L-carnitine 0.2%; (8) high fat diet+glycitein 0.2%; and (9) high fat diet+glycitein 0.2%+L-carnitine 0.2%, and the rats were […] for 8 weeks. […] The amount of diet consumed and body weight was measure three times per week during dieting.

[4] = cited from earlier work
[5] = test system: CPT-1; experiment: Expression of CPT-1 mRNA in liver by northern blotting and densitometry; assay type: in vivo, rat; settings: 8 weeks
Source text: After 8 weeks of dieting with following four (4) groups of high fat diet, high fat diet+genistein (0.2%), high fat diet+genistein (0.2%)+L-carnitine (0.2%) and high fat diet+genistein (0.4%), the rats were sacrificed to obtain liver tissues thereof. After homogenizing the liver tissues, RNA were extracted from the tissues using TRIZOL (Life Technologies, grand Island, N.Y., USA) consisting of phenol and guanidine isothiocyanate. Degree of expression of CPT-1 mRNA from the above extracted RNA was measured by northern blotting test, and expressed quantitatively by densitometry as shown in FIGS. 2a and 2b.

| SMILES | oxidation of fatty acids increased compared with that of the control [1] | Weight of epididymal adipose [2] | weight of epididymal adipose compared with control group with high fat diet [2] | Body weight after dieting [3] | increase of body weight compared with control group with high fat diet [3] | side effects of an excessive quantity, female rats ([4]; female rats) | side effects of an excessive quantity, male rats ([4]; male rats) | expression of CPT-1 compared with the group of high fat diet ([5]; 0.2% of each substance in high fat diet, FIG. 2b) | dependence of the expression of CPT-1 on concentration ([5]; genistein 0.2% vs 0.4% in high fat diet) |
| --- | --- | --- | --- | --- | --- | --- | --- | --- | --- |
| C[N+](C)(C)CC(O)CC(=O)[O-] [L-carnitine, β-hydroxy-γ-trimethylammonium butyric acid] | 2.07 times | 7.9 ± 0.45 g | almost the same | 465.1 ± 31.8 g | almost the same |  |  |  |  |
| COc1cc2c(=O)c(-c3ccc(O)cc3)coc2cc1O [glycitein] |  | 6.3 ± 0.41 g | also small | 446.4 ± 21.6 g | also small |  |  |  |  |
| O=c1c(-c2ccc(O)cc2)coc2cc(O)ccc12 [diadzein] |  | 6.1 ± 0.35 g | also small | 441.3 ± 19.4 g | also small |  |  |  |  |
| O=c1c(-c2ccc(O)cc2)coc2cc(O)cc(O)c12 [genistein] | 1.92 times | 5.2 ± 0.67 g | small | 433.5 ± 19.4 g | small | disorder of secretion | reduction of spermatozoa and sperm | increased | increases positively according to the concentration of genistein |

Source: patent US20080181940A1, “Method For Accelerating Expression of CPT-1” (Amorepacific Corporation, priority 2003, published 2008)
